Laboratory results taken from patent US10105414B2, “Peptides derived from RS1 which down-regulate glucose absorption after a glucose rich meal and increase insulin sensitivity” (Julius-Maximilians-Universität Würzburg, priority 2014, dated 2018).
Where two headings read alike, the source gives them in different places.

Columns and labels:
ODC [1] = target: T1, ODC (Homo sapiens, UniProt P11926); experiment: Activity of purified ODC (released CO2); format: biochemical; details: 100 μM tripeptide, 80 ng purified ODC, 1 h, 37° C.
T1 sequence (P11926 1-461): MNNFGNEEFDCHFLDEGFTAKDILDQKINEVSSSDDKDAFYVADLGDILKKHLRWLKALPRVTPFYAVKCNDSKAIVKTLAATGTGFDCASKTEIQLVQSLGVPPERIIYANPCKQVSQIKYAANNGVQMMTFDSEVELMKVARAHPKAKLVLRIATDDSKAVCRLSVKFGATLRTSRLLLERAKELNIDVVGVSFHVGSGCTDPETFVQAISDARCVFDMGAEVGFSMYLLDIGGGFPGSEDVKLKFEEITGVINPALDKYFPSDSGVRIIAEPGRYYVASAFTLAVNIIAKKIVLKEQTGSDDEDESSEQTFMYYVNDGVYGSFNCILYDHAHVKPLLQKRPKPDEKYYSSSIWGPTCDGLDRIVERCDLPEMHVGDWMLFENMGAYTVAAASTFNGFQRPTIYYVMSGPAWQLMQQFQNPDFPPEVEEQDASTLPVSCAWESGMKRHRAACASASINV

hCNT1 = experiment: hCNT1-mediated uridine uptake in Xenopus laevis oocytes after injection of peptides; format: cell-based, human; details: for uptake of 5 μM [3H]uridine expressed by hCNT1: low intracellular glucose, no AMG injected
Method: (§1) Selected oocytes were injected with 50 nl of water containing cRNAs (2.5 ng of hSGLT1 or 0.5 ng of hCNT1). For expression oocytes were incubated for 2-3 days at 16° C. in modified Barth's solution with gentamycin. Noninjected control oocytes were incubated in parallel.
(§2) Before uptake measurements were started, 50 nl of K-Ori buffer containing peptides, polypeptides, 1 pM of calmodulin stimulated kinase 2 (CK2) inhibitor KN93 (Calbiochem San Diego. Calif.), 3 mM of the omithinedecarboxlase inhibitor difluoromethylornithine DFMO and/or or 100 pmol α-methyl-α-D-glucopyranoside (AMG) were injected and the oocytes were incubated for 1 h at room temperature. Uptake was measured in Ori buffer at room temperature. Measurements in transporter expressing oocytes were corrected for measurements in noninjected oocytes. Uptake of 50 μM [^14C]AMG was measured after 15 min incubation and washing in ice-cold Ori buffer containing 1 mM phlorizin. Uptake of 5 μM [^3H]uridine was measured after 15 min incubation and washing in ice-cold Ori buffer. Oocytes were solubilized in 5% (w/v) SDS and analyzed for radioactivity by scintillation counting.
(§3) For comparison of mean values from 2 groups the Student's t-test for unpaired samples was employed.

hSGLT1 [2] = experiment: hSGLT1-mediated AMG uptake in Xenopus laevis oocytes 1 h after injection of peptides; format: cell-based, human; details: for down-regulation of hSGLT1 when putrescine was added: intracellular concentration 1 μM
Method: as §1, §2, §3

hSGLT1 [3] = details: 30 min; for down-regulation of hSGLT1 mediated AMG uptake: 5 mM D-glucose
Method: Jejunal segments which were routinely dissected during bariatric operations of highly obese patients were stored for 1-3 h on ice in Dulbecco's modified Eagle's medium containing 5 mM D-glucose. The mucosa was isolated and circular areas of the mucosa were dissected using a punching instrument.
(§4) Standardised t areas of human small intestinal mucosa (FIGS. 13,19) or 1 cm segments of everted mouse small intestine (FIGS. 14,15,20) were washed three times at 37° C. with Krebs-Ringer buffer containing 5 mM D-glucose and incubated for 30 min at 37° C. in Krebs-Ringer buffer containing 5 mM D-glucose plus different concentrations of tripeptides. Thereafter the tissue was washed three times at 0° C. in Krebs-Ringer buffer without glucose and uptake measurements were performed.
(§5) For measurement of SGLT1 mediated glucose uptake, the everted segments of mouse small intestine or defined areas of human mucosa were incubated for 2 min at 37° C. with Krebs-Ringer buffer containing 10 μM [^14C]AMG with or without 0.2 mM phlorizin. Uptake was stopped by transferring the segments into ice cold Krebs-Ringer buffer containing 0.2 mM phlorizin for 5 min. After washing with ice cold Krebs-Ringer buffer the intestinal segments or pieces of human mucosa were dissolved in 0.5 ml Soluence-350) (Perkin Elmer Inc. Waltham Mass., USA). Radioactivity was analysed by liquid scintillation counting. Phlorizin inhibited AMG uptake per cm length or per standard area of the mucosa was calculated.
Next, it was investigated which of the QXP-type tripeptides are capable to downregulate hSGLT1 expression in human small intestine in the presence of high glucose. Jejunal samples that were obtained during bariatric surgery of obese patients (males and females with a mean age of 50 years with a mean body mass index of 50) were used. […] A part of the jejumum which is routinely removed during bariatric surgery, was carried to the laboratory using ice-cold culture medium containing 6 mM D-glucose. Part of the mucosa was dissected and identical areas of the mucosa were isolated using a punching instrument. The mucosal pieces were washed with glucose free buffer and incubated for 30 min at 37° C. in tissue culture medium (pH 6.4) containing 5 mM D-glucose and different QXP-type tripeptides. Thereafter the sample were washed two times with PBS buffer (pH 7.4, 37° C.) and incubated for 2 min at 37° C. in PBS (pH 7.4) containing 100 mM sodium and 10 μM [^14C]AMG. The incubation was performed in the absence and presence of 200 μM of the SGLT1 inhibitor phlorizin. Thereafter the samples were washed with ice-cold PBS, the tissue was dissolved, and radioactivity was determined by liquid scintillation counting. The phorizin inhibited AMG uptake was calculated.

mSGLT1 [4] = details: RS1−/− mice starved over night; gavage 20 μmol per mouse; after 2 h
Method: as §5
(§6) After 2 h the animals were killed, their small intestines were everted and phlorizin inhibited uptake of 10 μM [^14C]AMG Into segments of the everted jejunum was measured (FIG. 12A).

mSGLT1 [5] = system: mSGLT1
Method: as §4, §5
Thereafter the segments were washed with PBS buffer and phlorizin inhibited uptake of 10 μM [^14C]AMG was measured.

[6] = RS1−/− mice; gavage 20 μmol QEP before 40% D-glucose gavage
Method: Blood (2 μL) was collected from the tail vein and analysed using the amperometric glucose oxidase method (glucose meter, ACCU-CHEK Aviva). Blood insulin-Insulin was determined using the rat C-peptide ELISA from Mercodia (Uppsala, Sweden) which is based on the sandwich technique using two monoclonal antibodies directed against two different antigenic determinants on the C-peptide.
as §6

hCNT3 = experiment: hCNT3-mediated uridine uptake in Xenopus laevis oocytes after injection of peptides; format: cell-based, human; details: low intracellular glucose, no AMG injected
Method: FIG. 9. […] Posttransciptional downregulation of hCNT1 and hCNT3 was measured without injection of AMG. […] One hour later uptake of 5 μM [^3H]uridine was measured.
as §2

ODC [7] = target: T1, ODC; experiment: ODC activity (released CO2) in HEK293 cells transfected with ODC; format: cell-based; set-up: expressed in transfected cells; host or cells: HEK293
Method: FIG. 23. […] Expressed uptake of 25 μM [^14C]AMG was measured 1 h later as FIG. 2. In A-C mean value±SE of 24-30 oocytes from three independent experiments are presented. D) HEK293 cells were transiently transfected with ODC, ODC plus hRS1-Reg or with ODC plus control vector. […] In D and E mean values±SE from 3-5 independent experiments are indicated. ***P<0.001 for difference to controls measured by ANOVA with posthoc Tukey comparison.
(§7) Employing two-hybrid screening and immunocoprecipitation experiments evidence was provided that hRS1-Reg binds to ODC (data not shown). It was shown that the release of SGLT1 containing vesicles from the Golgi apparatus was blocked by specific ODC Inhibitor difluoromethylornithine (DFMO) and that the DFMO effect was blunted when putrescine was added (FIG. 23A). Since hRS1-Reg and DFMO down-regulate hSGLT1 to a similar degree and the down-regulations were not additive, RS1-Reg and ODC employ the same pathway for down-regulation of hSGLT1.

ODC [8] = target: T1, ODC; experiment: Two-hybrid screening and immunocoprecipitation; format: binding; details: data not shown
Method: as §7

[9] = without injection of AMG (intracellular AMG <10 μM)

## PEQ: reverse tripeptide PEQ as control [reference compound]
ODC [1]
  inhibition of ODC activity: not

## glutamine-glutamic acid-proline [QEP]
NZO mice, 5 mM QEP in drinking water
  insulin sensitivity: increased
mouse, in vivo
  SGLT1-mediated AMG transport into enterocytes and glucose absorption during an OGTT: not decreased
  decrease of basal concentration of insulin in the serum: 50%
  increase and decrease of serum glucose after gavage with glucose: no effect
  increase of serum insulin after gavage with glucose: decreased
hCNT1
  uptake of 5 μM [3H]uridine expressed by hCNT1: not able to inhibit
hSGLT1 [2]
  affinity at high intracellular glucose higher than affinity of QSP at low intracellular glucose: about 1000 times
  down-regulation of hSGLT1 when putrescine was added: blunted
hSGLT1 [2]; 5 pM, intracellular AMG ~0.25 mM
  degree of down-regulation of hSGLT1: ~45%
hSGLT1 [2]; 50 nM tripeptide, no AMG injected
  inhibition of SGLT1 mediated transport: inhibition
hSGLT1 [2]; intracellular AMG ~250 μM versus low
  increase of affinity (decrease of IC50) for down-regulation of hSGLT1 at high versus low intracellular AMG: more than 15000 fold
hSGLT1 [2]; with injection of AMG (intracellular AMG ~0.25 mM)
  inhibition of SGLT1 expression: about 50%
hSGLT1 [2]; [9]
  down-regulation / inhibition of hSGLT1-mediated AMG uptake: about 40%
hSGLT1 [2]; without injection of AMG (intracellular AMG <10 μM), read-out: IC50 for down-regulation of hSGLT1-mediated AMG uptake
  IC50: 7.9 nM
hSGLT1 [3]; 0.1 mM
  down-regulation of hSGLT1 mediated AMG uptake: not statistically significant
hSGLT1 [3]; 0.5 mM
  down-regulation of hSGLT1 mediated AMG uptake: not statistically significant
hSGLT1 [3]; 1 mM
  down-regulation of hSGLT1 mediated AMG uptake: 40%
hSGLT1 [3]; 5 mM QEP in PBS without glucose, data not shown
  SGLT1 mediated AMG uptake at low intracellular glucose: did not decrease
hSGLT1 [3]; 15 mM
  down-regulation of hSGLT1 mediated AMG uptake: 75%
mSGLT1 [4]
  decrease of phlorizin inhibited uptake of 10 μM [14C]AMG into everted jejunum: about 30%
ODC [1]
  inhibition of ODC activity: about 40%
mSGLT1 [5]
  effect on SGLT1 mediated AMG uptake, first series of experiments: no effect
[6]
  plasma D-glucose 15 min after glucose gavage: significantly reduced
hCNT3
  uptake of 5 μM [3H]uridine expressed by hCNT3: not able to inhibit

B1: hRS1-Reg: regulatory domain of RS1 from human comprising amino acids 16-98 of hRS1 (SEQ ID No. 6) (protein, listed as Homo sapiens)
chain: SSGQSPDVGNPMSLARSVSASVCPIKPSDSDRIEPKAVKALKASAEFQLNSEKKEHLSLQDLSDHASSADHAPTDQSPAMPMQ
ODC [7]
  ODC activity when hRS1-Reg was coexpressed: decreased
hCNT1; intracellular AMG 250 μM
  effect of 250 μM intracellular AMG on affinity for down-regulation of hCNT1: not altered
hCNT1
  uptake of 5 μM [3H]uridine expressed by hCNT1: decreased
hCNT1; without injection of AMG
  down-regulation of hCNT1: about 50%
hCNT1; without injection of AMG, read-out: IC50 for down-regulation of hCNT1-mediated uridine uptake
  IC50: 126 ± 6 nM
hSGLT1 [2]; DFMO intracellular concentration 3 mM
  down-regulation of hSGLT1 by hRS1-Reg together with DFMO: not additive
hSGLT1 [2]; co-injected KN93, no AMG injected
  affinity for down-regulation of hSGLT1 when CK2 is blocked by inhibitor KN93: largely increased
hSGLT1 [2]; co-injected KN93, with AMG
  effect of intracellular AMG on the affinity for down-regulation of hSGLT1 after inhibition of CK2: drastically decreased
hSGLT1 [2]
  down-regulation of hSGLT1 when putrescine was added: blunted
hSGLT1 [2]; [9]
  down-regulation / inhibition of hSGLT1-mediated AMG uptake: about 50%
hCNT3
  uptake of 5 μM [3H]uridine expressed by hCNT3: decreased
ODC [8]
  binding to ODC: binds to ODC
